Source: US11524956B2, “Alkyne substituted quinazoline compound and methods of use” (Newgen Therapeutics, Inc., priority 2011, dated 2022)
Like-named read-outs stand apart in the source and are kept apart here.

Legend:
ErbB2 kinase protein = ErbB2 kinase protein (Homo sapiens (Human), UniProt P04626); assay: Kinase assay for ErbB2; assay type: biochemical; conditions: read-out: Kinase inhibition IC50 (nM) ErbB2
Protocol: The assay is performed similarly to the kinase assay for […] as described above, except ErbB2 kinase protein is used instead of EGFR kinase protein.

[1] = Rat pharmacokinetics studies (plasma); assay type: in vivo, Sprague Dawley rats
Protocol: Sample preparation: The test article each was dissolved in 10% DMSO and 90% of (40% HP-β-CD in deionized water) to yield concentration at 2 mg/mL for intravenous and oral administration.
Method development and plasma samples analysis were performed by Analytical Sciences Division of the Testing Facility by means of LC-MS/MS. The analytical results were confirmed using quality control samples for intra-assay variation (within day variation). The accuracy of >66% of the quality control samples was between 80-120% of the known value(s).
Each group consisted of 3 male Sprague Dawley rats (7-8 week old, 200-300 g body weight). The test articles were administered by a single bolus intravenous injection via the lateral tail vein or via oral gavage.
Blood samples (approximately 300 μl) were collected via retro-orbital puncture after anaesthesia using mixed gas (CO2:O2=7:3) into tubes containing EDTA-K3 anticoagulant at appropriate time points. 10 time points (Groups 1-2): Pre-dose and post-dose at 5 min, 15 min, 30 min, 1 h, 2 h, 4 h, 6 h, 8 h and 24 h.
Analysis: The PK blood samples were centrifuged at approximately 8000 rpm for (3 minutes at 2-8° C. and the resulting plasma were separated and stored frozen at approximately −80° C. (following separation, the plasma may be initially placed on ice prior to being stored in the −80° C. freezer). All the plasma samples were labeled with detailed information such as study number, animal number, matrix, time points of collection and date of collection.
Standard set of parameters including Area Under the Curve (AUC(0-t) and AUC(0-∞)), elimination half-live (T1/2), maximum plasma concentration (Cmax), time to reach maximum plasma concentration (Tmax), clearance (CL), and volume of distribution (Vz) will be calculated using noncompartmental analysis modules in FDA certified pharmacokinetic program WinNonlin Professional v5.2 (Pharsight, USA) by the Study Director. Furthermore, the Bioavailability will be estimated using the following formula:
• AUC(0-t) Area under the curve from the time of dosing to the last measurable concentration • AUC(0-∞) Area under the curve from the time of dosing extrapolated to infinity, based on the last observed concentration • CL Total body clearance, CL=Dose/AUC • Cmax Maximum observed concentration, occurring at Tmax • F Bioavailability • MRT(0-∞) Mean residence time from the time of dosing to infinity • Tmax Time of maximum observed concentration • T1/2 Terminal half-life=In(2)/λz • Vz Volume of distribution based on the terminal phase

NCI-N87 cells = assay: Anti-proliferation assay of NCI-N87 cells (CCK-8); assay type: cell-based; conditions: Homo sapiens, 72h
Protocol: The anti-proliferative assays were performed in triplicates. 3000 cell/well of N87 cells were seeded in 96-well plate, and the cells were incubated for 24h at 37° C. to allow adherence. For the cell proliferation assay, N87 cells were cultured in full cell culture medium containing 0.3% v/v DMSO. A serials concentration of the tested compound (concentration range: 30 uM to 0.16 nM, 5-fold dilution) were added to the 96-welt plate. The incubation was continued for 72h. The culture medium was then removed, and the cell viability was measured by using CCK-8 cell proliferation kit as described in manual provided by the manufacturer. The log of the fractional growth inhibition was plotted against the log of the drug concentration, and the IC50 values were interpolated from the resulting linear regression curve fit. The IC50 value measured for Compound NT113 is <100 nM.

EGFR kinase = EGFR kinase (Homo sapiens (Human), UniProt P00533); assay: Kinase assay for EGFR (TR-FRET, LanthaScreen); assay type: biochemical; conditions: read-out: Kinase inhibition IC50 (nM) EGFR
Protocol: The extent to which the compounds of the present invention modulate EGFR kinase activity can be determined using time-resolved Fret (TR-FRET) assay (LanthaScreen® kinase activity assay, from InVitrogen). The assay employs EGFR kinase (PV3872, Invitrogen), Tb-Py20 antibody (PV3552, InVitrogen) and fluorescein-poly GT (PV3610, InVitrogen).
The assay is performed in a Black 384-well plate (available from Corning). EGFR kinase (is diluted in TR-FRET Dilution Buffer (PV3189, InVitrogen) at concentration of 0.4 ug/ml as stock solution, and then 2-fold serial diluted. Addition of 1 mM ATP initiated the reaction, and the reaction is incubated for […] at room temperature. 10 μL of the Tb-antibody (from InVitrogen)+EDTA (from InVitrogen) solution prepared was added to each well of the assay plate and mix briefly, and incubated for 30 min. The signal is monitored by using M5 microplate reader (Ex=332 nm, Em=488 nm and 518 nm). Each compound is tested in duplicate wells. EGFR without compound is used as control. Staurosporine (available from Sigma) is used as positive control compound. Inhibition was calculated as percentage of the EGFR activity (without compound).

[2] = male, Sprague Dawley, rat plasma, IV 1 mg/Kg
[3] = male, Sprague Dawley, rat plasma, PO 5 mg/Kg

Sequence of ErbB2 kinase protein (P04626 23-1255): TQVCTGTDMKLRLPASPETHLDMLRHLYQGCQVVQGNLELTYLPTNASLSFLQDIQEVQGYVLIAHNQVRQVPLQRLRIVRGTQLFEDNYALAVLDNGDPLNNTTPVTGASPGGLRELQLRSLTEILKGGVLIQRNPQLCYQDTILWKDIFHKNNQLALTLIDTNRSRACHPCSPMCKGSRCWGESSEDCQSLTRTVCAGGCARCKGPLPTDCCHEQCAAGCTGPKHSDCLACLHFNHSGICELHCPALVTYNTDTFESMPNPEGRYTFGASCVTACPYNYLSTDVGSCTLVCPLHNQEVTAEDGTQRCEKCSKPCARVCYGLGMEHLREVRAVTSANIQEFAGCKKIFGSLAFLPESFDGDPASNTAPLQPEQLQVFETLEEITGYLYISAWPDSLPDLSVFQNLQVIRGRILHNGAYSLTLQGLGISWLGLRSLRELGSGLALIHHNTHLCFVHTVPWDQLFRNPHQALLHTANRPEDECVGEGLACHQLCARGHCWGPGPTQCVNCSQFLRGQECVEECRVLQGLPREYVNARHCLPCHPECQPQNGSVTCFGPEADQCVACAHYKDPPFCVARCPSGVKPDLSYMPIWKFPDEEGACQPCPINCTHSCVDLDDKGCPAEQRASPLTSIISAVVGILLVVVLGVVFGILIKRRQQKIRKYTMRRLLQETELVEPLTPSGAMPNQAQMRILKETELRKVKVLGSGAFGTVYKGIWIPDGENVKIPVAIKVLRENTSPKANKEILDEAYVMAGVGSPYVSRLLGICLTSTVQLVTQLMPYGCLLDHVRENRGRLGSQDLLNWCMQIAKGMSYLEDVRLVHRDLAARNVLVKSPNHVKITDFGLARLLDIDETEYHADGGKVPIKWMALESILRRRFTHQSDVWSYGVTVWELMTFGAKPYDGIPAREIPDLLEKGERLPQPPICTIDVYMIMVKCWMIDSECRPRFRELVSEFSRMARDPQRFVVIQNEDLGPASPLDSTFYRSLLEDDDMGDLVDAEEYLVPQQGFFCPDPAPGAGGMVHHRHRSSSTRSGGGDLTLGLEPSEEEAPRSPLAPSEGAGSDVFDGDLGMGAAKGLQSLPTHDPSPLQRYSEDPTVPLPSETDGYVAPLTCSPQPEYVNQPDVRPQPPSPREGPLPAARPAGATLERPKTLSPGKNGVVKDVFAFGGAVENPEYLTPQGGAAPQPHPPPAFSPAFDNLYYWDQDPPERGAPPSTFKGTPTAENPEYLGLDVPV
Sequence of EGFR kinase (P00533 668-1210): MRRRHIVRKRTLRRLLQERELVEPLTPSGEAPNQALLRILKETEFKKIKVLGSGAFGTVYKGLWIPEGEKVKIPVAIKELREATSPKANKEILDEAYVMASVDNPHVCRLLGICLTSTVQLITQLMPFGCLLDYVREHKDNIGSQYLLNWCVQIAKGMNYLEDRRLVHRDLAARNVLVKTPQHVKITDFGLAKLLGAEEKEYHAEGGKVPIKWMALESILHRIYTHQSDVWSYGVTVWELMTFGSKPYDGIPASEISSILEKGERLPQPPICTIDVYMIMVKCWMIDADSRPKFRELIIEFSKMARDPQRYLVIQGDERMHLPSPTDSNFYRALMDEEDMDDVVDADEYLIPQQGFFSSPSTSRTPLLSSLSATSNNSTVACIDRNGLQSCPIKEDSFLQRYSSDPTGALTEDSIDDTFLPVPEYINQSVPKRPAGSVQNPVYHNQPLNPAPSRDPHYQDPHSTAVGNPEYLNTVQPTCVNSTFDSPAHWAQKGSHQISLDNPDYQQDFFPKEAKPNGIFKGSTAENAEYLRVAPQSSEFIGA

CN(C)C/C=C/C(=O)Nc1cc2c(Nc3ccc(F)c(Cl)c3)ncnc2cc1C#C[C@@H]1[C@H]2COC[C@@H]12 [Example 4, (E)-N-(4-(3-chloro-4-fluorophenylamino)-7-(2-((1R,5S,6s)-3-oxa-bicyclo[3.1.0]hexan-6-yl)ethynyl)quinazolin-6-yl)-4-(dimethylamino)but-2-enamide]
IC50 (ErbB2 kinase protein): < 100 nM | bioavailability ([1]; male, Sprague Dawley, plasma, rat, PO 5 mg/Kg, using AUC(0-t) instead of AUC(0-∞), read-out: calculated oral bioavailability): 80.5% | AUC(0-inf) [1, 2]: 158 ng·h/mL | AUC(0-t) [1, 2]: 135 ng·h/mL | Cmax [1, 2]: 44.4 ng/mL | clearance [1, 2]: 105 mL/min/kg | half-life [1, 2]: 7.48 h | Vd ([1]; male, Sprague Dawley, rat plasma, IV 1 mg/Kg, read-out: Vz): 20.5 L/kg | AUC(0-inf) [1, 3]: 555 ng·h/mL | AUC(0-t) [1, 3]: 542 ng·h/mL | Cmax [1, 3]: 39.3 ng/mL | half-life [1, 3]: 14.9 h | CL ([1]; rat plasma, PO 5 mg/Kg): 150 mL/min/kg | Vz ([1]; rat plasma, PO 5 mg/Kg): 58.1 L/kg | F ([1]; rat, IV 1 mg/Kg): 100% | F ([1]; rat, PO 5 mg/Kg, from AUC(0-∞)): 70.1% | oral bioavailability and brain penetration (qualitative) ([1]; rat, oral administration): good oral bioavailability and brain penetration | IC50 (NCI-N87 cells; read-out: Cell Proliferation Inhibition IC50 (nM) NCI-N87): < 100 nM | IC50 (NCI-N87 cells; read-out: IC50 NCI-N87 anti-proliferation): < 100 nM | IC50 (EGFR kinase): < 100 nM
